Common to all, as to type: cell-based, human
For experiment [1], the system named is fibrocyte/adherent T cell co-cultures. The experiment can be described thus: IL-17A and INFγ released into culture medium (ELISA). The note with it: 50 μg/mL, day 9. The text has this:
ELISAs Media were collected from cultures treated as indicated and analyzed for concentrations of […] and IL-17A using specific ELISA kits (R&D systems) according to the manufacture's protocol.
Background: An ELISA detects its analyte on a solid surface through an enzyme-linked reagent.

Experiment [2] has as its system fibrocytes. The experiment can be described thus: mRNA stability with DRB. The settings on record: 50 μg/mL, up to 12 hrs. The protocol: FIGS. 5A-5C show the effects of teprotumumab on basal and bTSH-induced gene promoter activities in GD-OF compared to fibrocytes, gene transcription and mRNA stabilities of MHC II, CD80, CD86, PD-L1 in fibrocytes. Confluent GD-OF and fibrocyte monolayers were treated with human Isotype IgG (5 μg/ml) or teprotumumab (50 μg/mL) for 3 d and transfected with a target gene promoter fragment (MHC-2, CD80, CD86, PD-L1, or negative control clone PG04). Following a 3-4 d incubation, they were treated without or with bTSH (5 mU/mL) for 2 h. Monolayers were rinsed, processed, and analyzed using the Secrete-Pair Dual Luminescence Assay Kit for promoter activity according to manufacturer's instructions (FIG. 5A). Values were normalized to internal controls. Fibrocyte monolayers were cross-linked with 16% formaldehyde isolated chromatin fragment and immunoprecipitated with anti-human HLA-DPB1, anti-CD80, anti-CD86, or anti-PD-L1 using the Pierce™ Agarose Chip Kit. Isolated DNA was subjected to RT-PCR using EpiTect ChIP qPCR Primer Assay (Qiagen) for each target (FIG. 5B). Each datum point represents values from three independent determinations from one of three experiments performed. *, p<0.05; ** p<0.01; and ***p<0.001. Fibrocyte cultures were pretreated with bTSH for 6 h. […] RNA was extracted, reverse transcribed, and subjected to real-time quantitative PCR for each target (FIG. 5C). […]

Another experiment has as its system GD-OF. As to the kind of experiment: Hyaluronan (HA) production, ELISA. The note with it: 50 μg/ml, over 96 h. The protocol: (§1) FIGS. 13A-13B are graphs showing the effect of teprotumumab on bTSH induced hyaluronan (HA) production in GD-OF (FIG. 13A) and fibrocytes (FIG. 13B). GD-OF were treated with or without teprotumumab (50 μg/ml) or human Isotype IgG (5 μg/ml) for 7-9 d and stimulated with bTSH (5 mIU/mL) for graded intervals indicated along the abscissa for 0 to 96h. Media were collected and subjected to HA ELISA. Values were normalized to respective cell layer protein levels and expressed as the mean±SD of three independent determinations. Experiments were repeated three times. FIGS. 13C-13F are graphs showing the divergent pattern of hyaluronan synthase (HAS) isoenzyme induction by bTSH in fibrocytes versus GD-OF and effects of teprotumumab (FIGS. 13C and 13D) and linsitinib (FIGS. 13E and 13F). Confluent monolayers of GD-OF and fibrocytes remained untreated or received teprotumumab (50 μg/ml) or linsitinib (1 μM) and human Isotype IgG for 7-9 d. Some cultures were treated with bTSH (5 mIU/mL) for 6h. Cellular RNA was harvested mRNA was reverse transcribed, and cDNA subjected to quantitative real-time PCR for HAS1 and HAS2. Values were normalized to their respective GAPDH levels and are expressed as the mean±SD of three independent determinations. Experiments were repeated three times. *, P<0.05; **, p<0.01; ***. P<0.001.
(§2) IL-12, IL-23, IL-10, HA and BAFF ELISAs. […]

In experiment [3] the test system is fibrocytes. As to the kind of experiment: Hyaluronan (HA) production, ELISA. The note with it: 50 μg/ml. Here is the method: as §1, §2

On to teprotumumab, for which, in experiment [1], the “reduction of IL-17A released into the culture media” value is reported as 52% and the “reduction of INFγ released into the culture media” value worked out at 54%. Also, the “stabilities of mRNA encoding MHC II, CD80, CD86, PD-L1” value with fibrocytes [2] is “accelerated their decline”. In addition, the “effects of bTSH on HA synthesis” value in the experiment on GD-OF was “enhanced”. Also, in the experiment on fibrocytes [3], the “HA synthesis, bTSH with teprotumumab” value is “synergism”.

Values taken from patent publication US20250034264A1, “REGULATING T CELL IMMUNE RESPONSE THROUGH IGF-I RECEPTOR (IGF-1R)” (The Regents of the University of Michigan, priority 2021, published 2025).
